Molecules are shown by their SMILES. Converted amounts (≈) assume the structure as drawn. Read-outs that look alike come from different tables or passages of the source. Where only a bound is given, the exact number is not on record here.

Results on three compounds are retold here after patent publication US20090081721A1, “HIGH-THROUGHPUT CELL ASSAYS” (The Regents of the University of California, priority 2007, published 2009).

Assay [1] has as its system A. baumanii. Briefly: Isothermal titrative calorimetry (ITC) susceptibility test, power output and CFUs recovered. The format is cell-based, Acinetobacter baumanii. The settings on record: for Exponential increase in power (μW) after injection (ITC thermogram): 10^5 A. baumanii, 1 ml Mueller-Hinton broth, injection at 7,200 sec, 14,400 sec total; for Number of microbes (CFUs) in calorimetry chamber after incubation: 10^5 loaded, 4-hour monitoring; for Max dP/dt (100 save) after injection / Total μJ produced after injection: ciprofloxacin resistant, ampicillin resistant strain. How it is done:
(§1) In general, the susceptibility of bacterial strains can be tested by loading the chamber of an isothermal titrative calorimeter with a single bacterial strain, holding a constant temperature of 37° C. for a set time period (e.g., 14,400 seconds (4 hours)) and monitoring the power produced by the bacteria before and after application of an antimicrobial. Following the loading of the calorimeter, there is an initial energy spike within the first 1500 seconds (25 minutes) that is a normal equilibration period for a calorimeter. After the instrument and sample have equilibrated, the energy produced by a normally growing and dividing culture increases in an exponential manner, similar to a log phase growth curve of a microbial culture based on optical density (OD). Like the exponential increase in OD observed for a growing culture, the exponential increase in energy produced also seems to be associated with an increased number of cells in the medium because the number of cells retrieved from the calorimeter following a susceptibility test increases by about 2-3 orders of magnitude. (See Table 1).
(§2) In one aspect, the method is practiced by loading into a Isothermal Titrative Calorimetry (ITC) various drugs or antibiotics to which the cells such as microorganisms may be susceptible. The antibiotics can be loaded at different rates and at different growth densities. The difference in power produced by the sample co-cultured with the antibiotics are then measured and compared to the same untreated culture or culture treated with water. The data is differentiated to find the maximum growth rate (dP/dt), and integrated to determine the total microjoules produced by the culture after an antimicrobial was injected. If the organism is resistant to the antibiotic, the maximum growth rate is similar to that when the co-cultured with water. If the microorganism is sensitive to the antibiotic, maximum dP/dt and total microjoule (μJ) for the antimicrobial treated sample are much lower than the untreated sample or the sample treated with water. See FIGS. 6 through 9 for exemplary ITC-generated growth data.
(§3) The susceptibility of bacterial strains was tested by loading the chamber of an Isothermal Titrative Calorimeter (Calorimetry Sciences Corporation (CSC) and others are commercially available, see microcal.com/index, last accessed on Dec. 28, 2007) with a single bacterial strain, holding a constant temperature of 37° C. for 14,400 seconds (4 hours) and monitoring the power produced by the bacteria before and after application of an antimicrobial. Following the loading of the calorimeter, there is an initial energy spike within the first 1500 seconds (25 minutes) that is a normal equilibration period for a calorimeter. After the instrument and sample have equilibrated, the energy produced by a normally growing and dividing culture increases in an exponential manner, similar to a log phase growth curve of a microbial culture based on optical density (OD). Like the exponential increase in OD observed for a growing culture, the exponential increase in energy produced also seems to be associated with an increased number of cells in the medium because the number of cells retrieved from the calorimeter following a susceptibility test increases by 2-3 orders of magnitude. (See Table 1). A second spike in heat transfer being produced/absorbed in the calorimeter is associated with injection of either water or an antimicrobial into the injection chamber. This spike can be attributed to the enthalpy associated with dilution of the injected solution into the growth medium. […] If a strain is susceptible, a rise in power is not observed. If the strain is resistant to the agent or antimicrobial, the exponential rise in power is observed.
(§4) […]. H2O, ampicillin, or ciprofloxacin was injected into the chamber at 7,200 sec (2 hours). […]

Assay [2] relates to P. mirabilis. The assay is described as above. The settings on record: for Exponential increase in power (μW) after injection (ITC thermogram): injection at 7,200 sec, 14,400 sec total; for Number of microbes (CFUs) in calorimetry chamber after incubation: 10^5 loaded, 4-hour monitoring; for Max dP/dt (100 save) after injection / Total μJ produced after injection: ciprofloxacin resistant, ampicillin resistant strain. It counts as cell-based, Proteus mirabilis. How it is done: as §1, §2, §3
. H2O, ampicillin, or ciprofloxacin was injected into the chamber at 7,200 sec (2 hours). […]

The test system of assay [3] is K. pneumoniae. The description is as above. It counts as cell-based, Klebsiella pneumoniae. The settings on record: for Number of microbes (CFUs) in calorimetry chamber after incubation: 10^5 loaded, 4-hour monitoring; for Max dP/dt (100 save) after injection / Total μJ produced after injection: ciprofloxacin susceptible, ampicillin resistant strain. How it is done:
as §1, §2, §3, §4

In assay [4] the test system is K. pneumoniae. Briefly: Minimum inhibitory concentration (traditional susceptibility testing). It counts as cell-based. The following applies: Klebsiella pneumoniae. The procedure: (§5) Minimum inhibitory concentrations are determined by inoculating several cultures of bacteria in separate tubes or wells of broth that typically contain a 2-fold serial dilution of an antimicrobial.

Assay [5] has as its system P. mirabilis. The description is as above. The format is cell-based. The following applies: Proteus mirabilis. The procedure:
as §5

For assay [6], the system named is E. coli. Briefly: Isothermal titrative calorimetry (ITC) susceptibility test, power output and CFUs recovered. It counts as cell-based. The settings on record: for Exponential increase in energy after injection (ITC thermogram): 10^4 wild-type antibiotic susceptible E. coli, 1 ml Mueller-Hinton broth, injection at 7,200 sec, 14,400 sec total. How it is done: as §1
as §2, with “See FIGS. 6 through 9 for exemplary ITC-generated growth data.” left out

Assay [7] relates to A. baumanii. Briefly: Minimum inhibitory concentration (traditional susceptibility testing). The following applies: Acinetobacter baumannii; wild-type ampicillin and ciprofloxacin resistant A. baumanii strain used in ITC. It counts as cell-based. How it is done: as §5
Setting [8] is: 10^5 P. mirabilis, 1 ml Mueller-Hinton broth.

Take `CC1(C)S[C@@H]2[C@H](NC(=O)[C@H](N)c3ccccc3)C(=O)N2[C@H]1C(=O)O` [Ampicillin, ampicillin]: the “Exponential increase in power (μW) after injection (ITC thermogram)” value in assay [1] is “exponential increase in power continued in all three samples”; in assay [2] (setting [8]), “exponential increase in power continued in all three samples”; in assay [3] (10^5 K. pneumoniae, 1 ml Mueller-Hinton broth, injection at 7,200 sec, 14,400 sec total) it was “exponential increase in power continued in the sample injected with H2O and ampicillin”. The “Number of microbes (CFUs) in calorimetry chamber after incubation” value in assay [1] (Ampicillin 40 μg/ml) is 3.0 × 10^7 CFUs; in assay [2] (Ampicillin 40 μg/ml) it was 9.0 × 10^5 CFUs; in assay [3] (Ampicillin 40 μg/ml) it was 2.0 × 10^7 CFUs. Moreover, the results for the “Max dP/dt (100 save) after injection” value in assay [1] (Ampicillin 40 μg/ml), in assay [2] (Ampicillin 40 μg/ml) and in assay [3] (Ampicillin 40 μg/ml) were 0.026, 0.027 and 0.029, respectively. Besides, the “Total μJ produced after injection” value is 91,240 μJ in assay [1] (Ampicillin 40 μg/ml), 161,844 μJ in assay [2] (Ampicillin 40 μg/ml) and 139,108 μJ in assay [3] (Ampicillin 40 μg/ml). Moreover, the MIC in assay [4] and in assay [5] was more than 1020 µg/mL each time. The “Exponential increase in energy after injection (ITC thermogram)” value in assay [6] is “exponential increase in energy only continued in the sample injected with H2O”.
As for `O=C(O)c1cn(C2CC2)c2cc(N3CCNCC3)c(F)cc2c1=O` [Ciprofloxacin, ciprofloxacin], the “Exponential increase in power (μW) after injection (ITC thermogram)” value in assay [1] and in assay [2] (setting [8]) was “exponential increase in power continued in all three samples” each time. For the same compound, the “Number of microbes (CFUs) in calorimetry chamber after incubation” value in assay [1] (Ciprofloxacin 2 μg/ml) is 2.1 × 10^7 CFUs; in assay [2] (Ciprofloxacin 2 μg/ml) it was 4.1 × 10^6 CFUs; in assay [3] (Ciprofloxacin 2 μg/ml), 3.6 × 10^7 CFUs; in assay [6] (Ciprofloxacin 2 μg/ml, 10^4 loaded, 4-hour monitoring), 1.7 × 10^7 CFUs. Further, the “Max dP/dt (100 save) after injection” value in assay [1] (Ciprofloxacin 2 μg/ml) was determined as 0.027; in assay [2] (Ciprofloxacin 2 μg/ml), 0.012; in assay [3] (Ciprofloxacin 2 μg/ml), 0.003. Moreover, the “Total μJ produced after injection” value in assay [1] (Ciprofloxacin 2 μg/ml) is reported as 100,846 μJ; in assay [2] (Ciprofloxacin 2 μg/ml), 79,439 μJ; in assay [3] (Ciprofloxacin 2 μg/ml), 24,676 μJ. The “Rate of exponential increase in power after injection, compared with ampicillin or H2O” value in assay [2] (10^5 P. mirabilis, 1 ml Mueller-Hinton broth, injection at 7,200 sec) is recorded as “lower than for ampicillin or H2O”. Besides, the MIC in assay [5] (ampicillin resistant, weakly ciprofloxacin resistant P. mirabilis strain used in ITC, read-out: MIC) was 4 µg/mL (≈ 12.1 µM); in assay [7], more than 32 µg/mL. Besides, the “Exponential increase in energy after injection (ITC thermogram)” value in assay [6] is “exponential increase in energy only continued in the sample injected with H2O”.
As to `CC(C)(O/N=C(\C(=O)N[C@@H]1C(=O)N2C(C(=O)[O-])=C(C[n+]3ccccc3)CS[C@H]12)c1csc(N)n1)C(=O)O` [ceftazidime], the lowest concentration to inhibit growth in assay [5] (MIC) was 128 µg/mL (≈ 234 µM).
